Source: ChEMBL document CHEMBL3808389, “Stable and biocompatible cystine knot peptides from the marine sponge Asteropus sp” (Bioorg Med Chem, 2016)
Where a SMILES comes first, the peptide text is derived from it. Bridges are numbered along the chain shown (N, C = ends). [ ]: non-standard residue; d: D form. ξ: configuration not given here. ξpGlu = O=C1CCC(C(=O)O)N1

Key:
RAW264.7 [1] = test: Cytotoxicity against mouse RAW264.7 cells assessed as cell viability at 10 or 40 ug/ml measured after 24 hrs by WST assay; type: cell-based; conditions: raw264.7, 24 h
[2] = Toxicity in Thamnaconus modestus RBC assessed as hemolytic activity at 0.08 to 50 uM measured after 1 hr by spectrophotometric analysis; type: cell-based; conditions: erythrocyte
[3] = Thermal stability in Tris-acetate-EDTA buffer of pH 8.3 at 100 degC measured upto 12 hrs by reverse-phase HPLC analysis; type: physicochemical; conditions: pH 8.3, 12 h
RAW264.7 [4] = test: Toxicity in mouse RAW264.7 cells assessed as in induction of Nitric oxide production at 10 or 40 ug/ml measured after 24 hrs by Griess reaction method; type: cell-based; conditions: raw264.7, 24 h
[5] = Toxicity in human RBC assessed as hemolytic activity at 50 uM measured after 1 hr by spectrophotometric analysis; type: cell-based, Erythrocyte; conditions: for Activity: erythrocyte, 1 h, 50 µM
[6] = Thermal stability of the compound in phosphate buffer of pH 7.4 at 50 ug at 25 degC by CD analysis; type: physicochemical
[7] = Chemical stability assessed as pepsin (unknown origin)-mediated degradation in simulated human intestinal fluid at 37 degC measured up to 12 hrs by reverse-phase HPLC analysis; type: ADME, physicochemical; conditions: simulated gi fluid
[8] = Chemical stability assessed as trypsin (unknown origin)-mediated degradation in simulated human intestinal fluid at 37 degC measured up to 12 hrs by reverse-phase HPLC analysis; type: ADME, physicochemical; conditions: simulated gi fluid
[9] = Thermal stability of the compound in phosphate buffer of pH 7.4 at 50 ug at 100 degC assessed as conformation changes by measuring changes in short wavelength region (195 nanometer) by CD analysis; type: physicochemical
[10] = Chemical stability assessed as chymotrypsin (unknown origin)-mediated degradation in simulated human intestinal fluid at 37 degC measured up to 12 hrs by reverse-phase HPLC analysis; type: ADME, physicochemical; conditions: simulated gi fluid
[11] = Cytotoxicity against rat Ac2F cells at 30 uM; type: cell-based
[12] = Chemical stability assessed as elastase (unknown origin)-mediated degradation in simulated human intestinal fluid at 37 degC measured up to 12 hrs by reverse-phase HPLC analysis; type: ADME, physicochemical; conditions: simulated gi fluid
Plasma = test: Metabolic stability in human plasma at 37 degC measured upto 12 hrs by reverse-phase HPLC analysis; type: ADME, cell-free
Mus musculus [13] = test: Toxicity in mouse assessed as mortality at 40 mg/kg, ip after 7 days; type: organism-based; conditions: in vivo, 168 h
Mus musculus [14] = test: Toxicity in mouse assessed as behavior changes at 40 mg/kg, ip after 7 days; type: organism-based; conditions: in vivo, 168 h
Mus musculus [15] = test: Toxicity in mouse assessed as stiff tail at 40 mg/kg, ip after 12 hrs; type: organism-based; conditions: in vivo
Mus musculus [16] = test: Toxicity in mouse assessed as appearance changes at 40 mg/kg, ip after 7 days; type: organism-based; conditions: in vivo, 168 h
Mus musculus [17] = test: Toxicity in mouse assessed as aggressiveness at 40 mg/kg, ip after 12 hrs; type: organism-based; conditions: in vivo
Mus musculus [18] = test: Toxicity in mouse assessed as convulusion at 40 mg/kg, ip after 12 hrs; type: organism-based; conditions: in vivo
Mus musculus [19] = test: Toxicity in mouse assessed as paralysis at 40 mg/kg, ip after 12 hrs; type: organism-based; conditions: in vivo

SMILES	Activity (RAW264.7 [1])	Activity [2]	Stability [3]	Activity (RAW264.7 [4])	Activity [5]	also measured
CC[C@H](C)[C@H](NC(=O)[C@@H](NC(=O)[C@H](Cc1ccc(O)cc1)NC(=O)[C@@H]1CSSC[C@@H]2NC(=O)[C@@H]3CCCN3C(=O)[C@H](CC(N)=O)NC(=O)[C@H](Cc3ccccc3)NC(=O)[C@H](CCC(=O)O)NC(=O)[C@H](C(C)C)NC(=O)[C@H](CC(=O)O)NC(=O)[C@@H]3CSSC[C@H](NC(=O)[C@H]([C@H](C)O)NC(=O)[C@H](CC(C)C)NC(=O)[C@@H]4CCCN4C(=O)[C@@H]4CCCN4C(=O)[C@H](CSSC[C@H](N)C(=O)N4CCC[C@H]4C(=O)NCC(=O)N[C@@H](CCC(=O)O)C(=O)NCC(=O)N[C@@H](CCC(=O)O)C(=O)N[C@@H](CCC(N)=O)C(=O)N3)NC2=O)C(=O)N[C@@H]([C@@H](C)CC)C(=O)N2CCC[C@H]2C(=O)NCC(=O)N[C@@H](CC(=O)O)C(=O)N2CCC[C@H]2C(=O)N[C@@H](Cc2ccc(O)cc2)C(=O)NCC(=O)N[C@@H]([C@@H](C)CC)C(=O)N1)[C@@H](C)CC)C(=O)O	Non-toxic	Non-toxic	Stable	Non-toxic	Non-toxic	
CC[C@H](C)[C@@H]1NC(=O)CNC(=O)CNC(=O)[C@@H]2CCCN2C(=O)[C@H](CC(=O)O)NC(=O)CNC(=O)[C@@H]2CCCN2C(=O)[C@H](Cc2ccc(O)cc2)NC(=O)[C@@H]2CSSC[C@@H]3NC(=O)[C@H](CCC(=O)O)NC(=O)[C@H](CCC(=O)O)NC(=O)CNC(=O)[C@@H]4CCCN4C(=O)CNC(=O)[C@H](C)NC(=O)[C@@H](NC(=O)CNC(=O)C4CCC(=O)N4)CSSC[C@H](NC(=O)[C@H](CSSC[C@@H](C(=O)N[C@@H](Cc4ccc(O)cc4)C(=O)O)NC1=O)NC(=O)[C@H](CC(=O)O)NC(=O)[C@H](Cc1ccc(O)cc1)NC(=O)[C@H](Cc1ccccc1)NC(=O)CNC(=O)[C@H](C(C)C)NC(=O)[C@H]([C@@H](C)CC)NC3=O)C(=O)N1CCC[C@H]1C(=O)NCC(=O)N[C@@H](Cc1ccc(O)cc1)C(=O)N[C@@H](CCCNC(=N)N)C(=O)N2 (some centres not stated) ([ξpGlu]GCAGPGEECIVGFYDCCPGYRCYPGDPGGICY-OH; disulfide 3-18, 10-23, 17-32)	Non-toxic	Non-toxic		Non-toxic	Non-toxic	
CC[C@H](C)[C@H](NC(=O)[C@@H](NC(=O)[C@H](Cc1ccc(O)cc1)NC(=O)[C@@H]1CSSC[C@@H]2NC(=O)[C@@H]3CCCN3C(=O)[C@H](CC(N)=O)NC(=O)[C@H](Cc3ccccc3)NC(=O)[C@H](CCC(=O)O)NC(=O)[C@H](C(C)C)NC(=O)[C@H](CC(=O)O)NC(=O)[C@@H]3CSSC[C@H](NC(=O)[C@H]([C@@H](C)O)NC(=O)[C@H](CC(C)C)NC(=O)[C@@H]4CCCN4C(=O)[C@@H]4CCCN4C(=O)[C@H](CSSC[C@H](N)C(=O)N4CCC[C@H]4C(=O)NCC(=O)N[C@@H](CCC(=O)O)C(=O)NCC(=O)N[C@@H](CCC(=O)O)C(=O)N[C@@H](CCC(=O)O)C(=O)N3)NC2=O)C(=O)N[C@@H]([C@@H](C)CC)C(=O)N2CCC[C@H]2C(=O)NCC(=O)N[C@@H](CC(=O)O)C(=O)N2CCC[C@H]2C(=O)N[C@@H](Cc2ccc(O)cc2)C(=O)NCC(=O)N[C@@H]([C@@H](C)CC)C(=O)N1)[C@@H](C)CC)C(=O)O (H-CPGEGEECDVEFNPCCPPLTCIPGDPYGICYII-OH; disulfide 1-16, 8-21, 15-30)	Non-toxic	Non-toxic	Stable	Non-toxic	Non-toxic	Stability [6]: Stable; Stability [7]: Stable; Stability [8]: Stable; Stability [9]: Unstable; Stability [10]: Stable; Activity [11]: Non-toxic; Stability [12]: Stable; Stability (Plasma): Stable
CC[C@H](C)[C@@H]1NC(=O)[C@H](CC(C)C)NC(=O)CNC(=O)[C@H](CC(=O)O)NC(=O)[C@@H]2CSSC[C@H](NC(=O)[C@H](Cc3c[nH]c4ccccc34)NC(=O)C3CCC(=O)N3)C(=O)N[C@@H](C)C(=O)N[C@@H](CCC(=O)O)C(=O)N[C@@H](CCC(=O)O)C(=O)NCC(=O)N[C@@H](CCC(=O)O)C(=O)N[C@@H](CO)C(=O)N[C@H]3CSSC[C@H](NC1=O)C(=O)N[C@@H](Cc1ccc(O)cc1)C(=O)N1CCC[C@H]1C(=O)N[C@@H]([C@@H](C)O)C(=O)N[C@@H](Cc1ccccc1)C(=O)N1CCC[C@H]1C(=O)N[C@@H](CCC(=O)O)C(=O)N1CCC[C@H]1C(=O)N[C@@H]([C@@H](C)CC)C(=O)N[C@H](C(=O)NCC(=O)N[C@H](C(=O)O)C(C)C)CSSC[C@H](NC(=O)[C@@H]1CCCN1C(=O)[C@H](Cc1ccc(O)cc1)NC(=O)[C@H](C(C)C)NC(=O)[C@H](CCC(=O)O)NC3=O)C(=O)N2 (some centres not stated) ([ξpGlu]WCAEEGESCEVYPCCDGLICYPTFPEPICGV-OH; disulfide 3-16, 10-21, 15-30)		Non-toxic			Non-toxic	Stability [6]: Stable; Stability [7]: Stable; Stability [8]: Stable; Stability [9]: Unstable; Stability [10]: Stable; Stability [12]: Stable; Stability (Plasma): Stable
CC[C@H](C)[C@@H]1NC(=O)[C@@H]2CSSC[C@@H]3NC(=O)[C@H](CO)NC(=O)[C@H](CCC(=O)O)NC(=O)CNC(=O)[C@H](CCC(=O)O)NC(=O)[C@H](Cc4ccccc4)NC(=O)[C@H](C)NC(=O)[C@@H](NC(=O)CNC(=O)C4CCC(=O)N4)CSSC[C@H](NC(=O)[C@H](CSSC[C@@H](C(=O)N[C@@H](Cc4ccc(O)cc4)C(=O)N[C@@H](Cc4ccc(O)cc4)C(=O)N[C@@H](CC(C)C)C(=O)O)NC(=O)[C@H]([C@@H](C)O)NC(=O)CNC(=O)[C@H](CC(=O)O)NC(=O)[C@@H]4CCCN4C(=O)[C@H](CC(N)=O)NC(=O)CNC(=O)[C@@H]4CCCN4C1=O)NC(=O)[C@@H]1CCCN1C(=O)[C@H](Cc1ccc(O)cc1)NC(=O)[C@H](Cc1ccccc1)NC(=O)[C@H](CCC(N)=O)NC(=O)[C@H](C(C)C)NC(=O)[C@H](CC(N)=O)NC3=O)C(=O)N1CCC[C@H]1C(=O)NCC(=O)N[C@@H](CC(C)C)C(=O)NCC(=O)N[C@@H](CC(C)C)C(=O)N[C@@H]([C@@H](C)O)C(=O)N2 (some centres not stated) ([ξpGlu]GCAFEGESCNVQFYPCCPGLGLTCIPGNPDGTCYYL-OH; disulfide 3-18, 10-25, 17-34)	Non-toxic	Non-toxic	Stable	Non-toxic	Non-toxic	Activity (Mus musculus [13]): Non-toxic; Activity (Mus musculus [14]): Non-toxic; Activity (Mus musculus [15]): Non-toxic; Activity (Mus musculus [16]): Non-toxic; Activity (Mus musculus [17]): Non-toxic; Activity (Mus musculus [18]): Non-toxic; Activity (Mus musculus [19]): Non-toxic
CC(C)C[C@@H]1NC(=O)CNC(=O)[C@H](CC(N)=O)NC(=O)[C@H](CCCNC(=N)N)NC(=O)[C@H]([C@@H](C)O)NC(=O)[C@@H]2CSSC[C@@H]3NC(=O)[C@H]([C@@H](C)O)NC(=O)CNC(=O)CNC(=O)[C@H](C(C)C)NC(=O)[C@@H]4CSSC[C@H](NC(=O)[C@H]([C@@H](C)O)NC(=O)[C@H](CSSC[C@H](NC(=O)[C@H](C(C)C)NC(=O)[C@@H]5CCCN5C1=O)C(=O)NCC(=O)N[C@@H](CCC(=O)O)C(=O)N[C@@H]([C@@H](C)O)C(=O)N4)NC(=O)CNC(=O)[C@@H]1CCCN1C(=O)[C@H]([C@@H](C)O)NC(=O)[C@H](CC(N)=O)NC3=O)C(=O)N[C@@H](CO)C(=O)N[C@@H](Cc1c[nH]c3ccccc13)C(=O)N1CCC[C@H]1C(=O)N[C@@H](C(C)C)C(=O)N2			Stable			hemolysis at 1 h, 50 µM ([5]; red blood cells, read-out: Activity): 74%
CC[C@H](C)[C@@H]1NC(=O)[C@@H]2CSSC[C@@H]3NC(=O)[C@H](CO)NC(=O)[C@H](CCC(=O)O)NC(=O)CNC(=O)[C@H](CCC(=O)O)NC(=O)[C@H](Cc4ccccc4)NC(=O)[C@H](C)NC(=O)[C@@H](NC(=O)CNC(=O)C4CCC(=O)N4)CSSC[C@H](NC(=O)[C@H](CSSC[C@@H](C(=O)N[C@@H](Cc4ccc(O)cc4)C(=O)N[C@@H](Cc4ccc(O)cc4)C(=O)N[C@@H](CC(C)C)C(=O)O)NC(=O)[C@H]([C@@H](C)O)NC(=O)CNC(=O)[C@H](CC(=O)O)NC(=O)[C@@H]4CCCN4C(=O)[C@H](CC(N)=O)NC(=O)CNC(=O)[C@@H]4CCCN4C1=O)NC(=O)[C@@H]1CCCN1C(=O)[C@H](Cc1ccc(O)cc1)NC(=O)[C@H](Cc1ccccc1)NC(=O)[C@H](CCC(=O)O)NC(=O)[C@H](C(C)C)NC(=O)[C@H](CC(N)=O)NC3=O)C(=O)N1CCC[C@H]1C(=O)NCC(=O)N[C@@H](CC(C)C)C(=O)NCC(=O)N[C@@H](CC(C)C)C(=O)N[C@@H]([C@@H](C)O)C(=O)N2 (some centres not stated) ([ξpGlu]GCAFEGESCNVEFYPCCPGLGLTCIPGNPDGTCYYL-OH; disulfide 3-18, 10-25, 17-34)		Non-toxic			Non-toxic	
